These results are taken from US20170209364A1, “Method For Treating The Appearance Of Thinning Hair” (priority 2016, published 2017).

For one data set, the system named is 5-α reductase enzyme. The data set can be described thus: 5-α reductase inhibition: [14C]-testosterone metabolism to DHT in cultured cells (TLC/autoradiography). The class given is cell-based. The following applies: Finasteride 1 × 10^−5 M (reference).

Experimental for 5-α reductase enzyme: Cells were seeded in a 24-well plate and cultured for 24 hours in culture medium. […] Cells were then treated with assay medium containing [^14C]-testosterone and containing the test compound, the association or the reference and the cells were incubated for 24 hours. The culture supernatants were then collected for testosterone metabolism analysis and a standard MTT reduction assay was performed on the cell layers (cell viability assessment).
All experimental conditions were performed in n=3.
The steroid molecules from supernatants were extracted with a chloroform/methanol mix. The organic phase was collected and the different molecular species (testosterone metabolites) were separated by thin layer chromatography (TLC) and using a solvent system containing dichloromethane, ethyl acetate and methanol.
An autoradiography was performed on the chromatography and the transformed testosterone was estimated by densitometric analysis of the different spots corresponding to testosterone metabolites (Packard Cyclone Phosphorlmager and Fujifilm Multigauge software).
Experimental for in vitro: Cells were seeded in a 24-well plate and cultured for 24 hours in culture medium.
At the end of incubation, the cells were incubated with MTT (tetrazolium salt) reduced in blue formazan crystals by succinate dehydrogenase (mitochondrial enzyme). This transformation is proportional to the enzyme activity. After cell dissociation and formazan crystal solubilization using DMSO, the optical density (OD) of the extracts at 540 nm, proportional to the number of living cells and their metabolic activity, was recorded with a microplate reader (VERSAmax, Molecular Devices). The equation used for measuring cell viability is as follows: viability (%)=(OD sample/OD control)×100.
Dermal papilla cell viability is measured with a standard MTT assay (via ASTM E2526-08(2013)).

A word on the viability: it is a read-out of living cells in per cent, often relative to untreated cells. As for `CC(C)(C)NC(=O)[C@H]1CC[C@H]2[C@@H]3CC[C@H]4NC(=O)C=C[C@]4(C)[C@H]3CC[C@]12C` [Finasteride, finasteride], the viability at 48 h in “in vitro” came out at 101%. The “DHT/Testosterone ratio as % of Control” value in the data set with 5-α reductase enzyme was determined as 28%.
